Assay results from patent publication US7223759B2, “Antibacterial 3,5-diaminopiperidine-substituted aromatic and heteroaromatic compounds” (Anadys Pharmaceuticals, Inc., priority 2003, dated 2007).

The compounds below were run on Escherichia coli (ATCC25922) or Staphylococcus aureus (ATCC25923) (assay: Antibacterial MIC, microdilution method in Mueller-Hinton medium). Conditions: Escherichia coli, 18 h, MIC in E. coli or S. aureus; two-fold serial dilutions 64 to 0.5 μg/ml in duplicate; 18 hours of incubation at 35° C.; read-out: Potency (MIC).
Format: cell-based
Procedure, shortened: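 Two-fold serial dilutions from 64 to 0.5 μg/ml, in duplicate, by broth microdilution in Mueller-Hinton medium (NCCLS M7-A5). MIC taken as the lowest concentration preventing visible growth after 18 h at 35° C.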

MIC | Compound
< 16 µg/mL | COc1ccc(Nc2ccc(NC(=O)CC(=O)c3ccc(Nc4nc(N5CCCCC5)nc(N5CCCCC5)n4)cc3)cc2)cc1 [N-{4-[2-(4-methoxy-phenylcarbamoyl)-acetyl]-phenyl}-44,6-Bis-((3R,5S)-3,5-diamino-piperidin-1-yl)-[1,3,5]triazine-2-amine]
< 16 µg/mL | COc1ccc(Nc2ccc(NC(=O)CC(=O)c3ccc(Nc4nc(N5C[C@H](N)C[C@H](N)C5)nc(N5C[C@H](N)C[C@H](N)C5)n4)cc3)cc2)cc1 [N-(4-{2-[4-(4-methoxy-phenylamino)-phenylcarbamoyl]-acetyl}-phenyl)-4,6-Bis-((3R,5S)-3,5-diamino-piperidin-1-yl)-[1,3,5]triazine-2-amine]
> 64 µg/mL | COc1cc(NC(=O)CC(=O)c2ccc(Nc3nc(N4C[C@H](N)C[C@H](N)C4)nc(N4C[C@H](N)C[C@H](N)C4)n3)cc2)cc(OC)c1OC [N-{4-[2-(3,4,5-trimethoxy-phenylcarbamoyl)-acetyl]-phenyl}-4,6-Bis-((3R,5S)-3,5-diamino-piperidin-1-yl)-[1,3,5]triazine-2-amine]
< 64 µg/mL | Cl.N[C@@H]1C[C@H](N)CN(c2nc(Nc3c[nH]c(=O)[nH]c3=O)nc(N3C[C@H](N)C[C@H](N)C3)n2)C1 [N-(2,4-dioxo-1,2,3,4-tetrahydro-pyrimidin-5-yl)-4,6-Bis-((3R,5S)-3,5-diamino-piperidin-1-yl)-[1,3,5]triazine-2-amine]
> 64 µg/mL | CC(=O)c1ccc(Nc2nc(N3CCCCC3)nc(N3CCCCC3)n2)cc1.Cl [1-{4-[4-((3R,4S)-3-Aminomethyl-4-hydroxy-piperidin-1-yl)-6-((3R,5S)-3,5-diamino-piperidin-1-yl)-[1,3,5]triazin-2-ylammino]-phenyl}-ethanone]
< 64 µg/mL | Cl.NCCN(CCN)c1nc(Nc2ccc(C(=O)Oc3ccccc3)c([N+](=O)[O-])c2)nc(N2CCCCC2)n1 [4-[4-[Bis-(2-amino-ethyl)-amino]-6-((3R,5S)-3,5-diamino-piperidin-1-yl)-[1,3,5]triazin-2-ylamino]-2-hydroxy-benzoic acidphenyl ester]
> 64 µg/mL | Cc1cc(NC(=O)c2ccccc2)c(Cl)cc1Nc1nc(N2CCCCC2)nc(N2CCCCC2)n1 [N-(4-benzoylamino-5-chloro-23-methyl-phenyl)-4,6-Bis((3R,5S)-3,5-diamino-piperidin-1-yl)-[1,3,5]triazine-2-amine]

Same assay, conditions: Escherichia coli, 18 h, read-out: Potency (MIC)

Compound | MIC
NC[C@H]1[C@@H](O)CCN1c1nc(Nc2ccc(NC(=O)c3ccc(Cl)cc3)c(O)c2)nc(N2C[C@H](N)C[C@H](N)C2)n1 [N-{4-[4-((2S,3S)-2-Aminomethyl-3-hydroxy-pyrrolidin-1-yl)-6-((3R,5S)-3,5-diamino-piperidin-1-yl)-[1,3,5]triazin-2-ylamino]-2-hydroxy-phenyl}-4-chloro-benzamide] | < 64 µg/mL
NC(=O)c1ccc(Nc2nc(N3C[C@H](N)C[C@H](N)C3)nc(N3C[C@@H](N)C[C@H]3CO)n2)cc1O [4-[4-((2S,4S)-4-Amino-2-hydroxymethyl-pyrrolidin-1-yl)-6-((3R,5S)-3,5-diamino-piperidin-1-yl)-[1,3,5]triazin-2-ylamino]-2-hydroxy-benzamide] | > 64 µg/mL
Cc1cc(=O)oc2cc(Nc3nc(N4C[C@H](N)C[C@H](N)C4)nc(N4C[C@H](N)C[C@H](N)C4)n3)ccc12 [N-(4-methyl-2-oxo-2H-chromen-7-yl)-4,6-Bis-((3R,5S)-3,5-diamino-piperidin-1-yl)-[1,3,5]triazine-2-amine] | < 16 µg/mL
COc1cc2c(cc1Nc1nc(N3C[C@H](N)C[C@H](N)C3)nc(N3C[C@H](N)C[C@H](N)C3)n1)oc1ccccc12 [N-(2-methoxy-dibenzofuran-3-yl)-4,6-Bis-((3R,5S)-3,5-diamino-piperidin-1-yl)-[1,3,5]triazine-2-amine] | < 64 µg/mL
COc1cccc(S(=O)(=O)Nc2ccc(Nc3nc(N4C[C@H](N)C[C@H](N)C4)nc(N4C[C@H](N)C[C@H](N)C4)n3)cc2O)c1 [N-[3-hydroxy-4-(3-methoxy-benzenesulfonylamino)-phenyl]-4,6-Bis-((3R,5S)-3,5-diamino-piperidin-1-yl)-[1,3,5]triazine-2-amine] | < 64 µg/mL
N[C@@H]1C[C@H](N)CN(c2nc(Nc3cccc(NC(=O)c4ccc(O)cc4O)c3)nc(N3C[C@H](N)C[C@H](N)C3)n2)C1 [N-[3-(2,4-dihydroxy-benzoylamino)-phenyl]-4,6-Bis-((3R,5S)-3,5-diamino-piperidin-1-yl)-[1,3,5]triazine-2-amine] | < 16 µg/mL
N[C@@H]1C[C@H](N)CN(c2nc(Nc3ccc(C(=O)Nc4cc(Cl)c(O)c(Cl)c4)c(O)c3)nc(N3C[C@H](N)C[C@H](N)C3)n2)C1 [N-[4-(3,5-dichloro-4-hydroxy-phenylcarbamoyl)-3-hydroxy-phenyl]-4,6-Bis-((3R,5S)-3,5-diamino-piperidin-1-yl)-[1,3,5]triazine-2-amine] | < 64 µg/mL
NC[C@@H]1C[C@@H](O)CN1c1nc(Nc2ccc(NC(=O)c3ccc4ccccc4c3O)cc2)nc(N2C[C@H](N)C[C@H](N)C2)n1 [1-Hydroxy-naphthalene-2-carboxylicacid {4-[4-((2S,4R)-2-aminomethyl-4-hydroxy-pyrrolidin-1-yl)-6-((3R,5S)-3,5-diamino-piperidin-1-yl)-[1,3,5]triazin-2-ylamino]-phenyl}-amide] | < 64 µg/mL
N[C@@H]1C[C@H](N)CN(c2nc(Nc3nc4ccccc4s3)nc(N3C[C@H](N)C[C@H](N)C3)n2)C1 [N-benzothiazol-2-yl-4,6-Bis-((3R,5S)-3,5-diamino-piperidin-1-yl)-[1,3,5]triazine-2-amine] | < 64 µg/mL
N[C@@H]1C[C@H](N)CN(c2nc(Nc3ccc(NC(=O)c4ccc(Cl)cc4O)c(Cl)c3)nc(N3C[C@H](N)C[C@H](N)C3)n2)C1 [N-[3-chloro-4-(4-chloro-2-hydroxy-benzoylamino)-phenyl]-4,6-Bis-((3R,5S)-3,5-diamino-piperidin-1-yl)-[1,3,5]triazine-2-amine] | < 16 µg/mL
N[C@@H]1C[C@H](N)CN(c2nc(Nc3ccc(S(=O)(=O)Nc4ccc5cn[nH]c5c4)cc3)nc(N3C[C@@H](O)[C@@H](O)C3)n2)C1 [4-[4-((3S,5R)-3,5-Diamino-piperidin-1-yl)-6-((3R,4S)-3,4-dihydroxy-pyrrolidin-1-yl)-[1,3,5]triazin-2-ylamino]-N-(1H-indazol-6-yl)-benzenesulfonamide] | > 64 µg/mL
N[C@@H]1C[C@H](N)CN(c2nc(NCc3ccc(Oc4ccccc4)cc3)nc(N3C[C@H](N)C[C@H](N)C3)n2)C1 [N-(4-phenoxy-benzyl)-4,6-Bis-((3R,5S)-3,5-diamino-piperidin-1-yl)-[1,3,5]triazine-2-amine] | > 64 µg/mL
N[C@@H]1C[C@H](N)CN(c2nc(Nc3ccc(C(=O)CC(=O)Nc4ccccc4Cl)cc3)nc(N3C[C@H](O)C[C@H](O)C3)n2)C1 [N-(2-Chloro-phenyl)-3-{4-[4-((3R,5S)-3,5-diamino-piperidin-1-yl)-6-((3R,5S)-3,5-dihydroxy-piperidin-1-yl)-[1,3,5]triazin-2-ylamino]-phenyl}-3-oxo-propionamide] | < 64 µg/mL
NC[C@@H]1C[C@H](N)CN1c1nc(Nc2ccc(C(=O)Oc3ccccc3)c(O)c2)nc(N2C[C@H](N)C[C@H](N)C2)n1 [4-[4-((2S,4S)-4-Amino-2-aminomethyl-pyrrolidin-1-yl)-6-((3R,5S)-3,5-diamino-piperidin-1-yl)-[1,3,5]triazin-2-ylamino]-2-hydroxy-benzoic acid phenyl ester] | < 16 µg/mL
Cc1cc(Br)ccc1Nc1nc(N2C[C@H](N)C[C@H](N)C2)nc(N2C[C@H](N)C[C@H](N)C2)n1 [N-(4-bromo-2-methyl-phenyl)-4,6-Bis-((3R,5S)-3,5-diamino-piperidin-1-yl)-[1,3,5]triazine-2-amine] | > 64 µg/mL
N[C@@H]1C[C@H](N)CN(c2nc(Nc3ccc(C(=O)Nc4ccc(F)cc4)c(O)c3)nc(N3C[C@H](N)C[C@H](N)C3)n2)C1 [N-[4-(4-fluoro-phenylcarbamoyl)-3-hydroxy-phenyl]-4,6-Bis-((3R,5S)-3,5-diamino-piperidin-1-yl)-[1,3,5]triazine-2-amine] | < 16 µg/mL
N[C@@H]1C[C@H](N)CN(c2nc(Nc3ccc4c(c3)-c3ccccc3C4=O)nc(N3C[C@@H](O)[C@@H](O)C3)n2)C1 [3-[4-((3S,5R)-3,5-Diamino-piperidin-1-yl)-6-((3R,4S)-3,4-dihydroxy-pyrrolidin-1-yl)-[1,3,5]triazin-2-ylamino}-fluoren-9-one] | > 64 µg/mL
Cc1cccc(NNc2nc(N3C[C@H](N)C[C@H](N)C3)nc(N3C[C@H](N)C[C@H](N)C3)n2)c1 [N-(4,6-Bis-((3R,5S)-3,5-diamino-piperidin-1-yl)-[1,3,5]triazin-2-yl)-N′-m-Tolyl-hydrazine] | < 64 µg/mL
CN(C)c1ccc(C(=O)Nc2ccc(Nc3nc(N4C[C@H](N)C[C@H](N)C4)nc(N4C[C@H](N)C[C@H](N)C4)n3)cc2O)c(O)c1 [N-[4-(4-dimethylamino-2-hydroxy-benzoylamino)-3-hydroxy-phenyl]-4,6-Bis-((3R,5S)-3,5-diamino-piperidin-1-yl)-[1,3,5]triazine-2-amine] | < 16 µg/mL
N[C@@H]1C[C@H](N)CN(c2nc(Nc3ccc(C(=O)CC(=O)Nc4cc(C(F)(F)F)ccc4Cl)cc3)nc(N3C[C@H](N)C[C@H](N)C3)n2)C1 [N-{4-[2-(2-chloro-5-trifluoromethyl-phenylcarbamoyl)-acetyl]-phenyl}-4,6-Bis-((3R,5S)-3,5-diamino-piperidin-1-yl)-[1,3,5]triazine-2-amine] | < 16 µg/mL

Same assay, conditions: MIC in E. coli or S. aureus; two-fold serial dilutions 64 to 0.5 μg/ml in duplicate; 18 hours of incubation at 35° C.

Compound | Potency (MIC)
Cc1ccc(C(=O)Nc2ccc(Nc3nc(N4CCCCC4)nc(N4CCCC4)n3)cc2O)cc1.Cl [drawing 285, NM-{4-[4-((3R,5S)-3,5-Diamino-piperidin-1-yl)-6-((3R,4S)-3,4-diamino-pyrrolidin-1-yl)-[1,3,5]triazin-2-ylamino]-2-hydroxy-phenyl}-4-methyl-benzamide] | + (+ means MIC<64 μg/ml in E. coli or S. aureus)
